Source: patent US8841269B2, “Polynucleotides for use in treating and diagnosing cancers” (Creighton University, priority 2010, dated 2014)

Assay: Real-time PCR quantification of mature let-7 after mimic transfection in MCF7
Format: cell-based, human
Conditions: for rank of forced expression throughout the time course: MCF7, relative quantity against RNU48
Procedure: Quantitative real-time PCR. For miRNA quantification in FFPE tissues, total RNA was extracted as described above; for miRNA quantification in cell lines, total RNA was isolated using mirVana miRNA Isolation Kit (Ambion Inc.). cDNA was synthesized by using 100 ng total RNA in a reaction volume of 15 μL, by following the protocol of Taqman miRNA Reverse Transcription Kit (Applied Biosystems). After 15 times dilution, 9 μL cDNA was used for real-time PCR in a 20 μL reaction volume, including 10 μL of master mix and 1 μL Taqman probe (Applied Biosystems). This reaction system only detects mature miRNAs not pre-miRNAs. The level of each miRNA was expressed following the 2^−ΔΔCt or […] method using the small nuclear RNA, RNU48, as the internal reference.
For FFPE tissues, there was the same repeat number as in microarray; for cell lines, there were three biological repeats. Each sample had three technical repeats on the PCR plate. Real-time PCR was performed on an Applied Biosystems 7900HT real-time PCR instrument. PCR was initiated by two holds of 52° C. 2 min and 94° C. 10 min each, followed by 40 cycles of 15 s at 95° C. and 1 min at 60° C.

[1] = MCF7, one day post transfection, 60 nmol/L each

Substance	expression of let-7b relative to let-7a and let-7i (MCF7, after 2 days)	mature let-7b level relative to let-7a (MCF7, after 6 days)	mature let-7b level relative to let-7a [1]	mature let-7b level relative to let-7i [1]	rank of forced expression throughout the time course
let-7b: let-7b miRNA (mimic), 3′-UUGGUGUGUUGGAUGAUGGAGU-5′ (SEQ ID NO:8) (chemistry not given here; listed 3' to 5')	2	~10	~20	~6	highest expression
let-7i: let-7i miRNA (mimic), 3′-UUGUCGUGUUUGAUGAUGGAGU-5′ (SEQ ID NO:14) (chemistry not given here; listed 3' to 5')					in the middle
